Patent US20250009743A1, “METHODS OF TREATING CANCERS USING STING AGONISTS” (Dana-Farber Cancer Institute, Inc., priority 2021, published 2025)

How the values were obtained:
[1] = test system: PBM-R tumor cells; experiment: Measurement of IC50 value in PBM-R tumor cells (CellTiter-Glo); assay type: cell-based, mouse
Protocol: Tumor cells were seeded in 96-well plates at a density of 2000-3000/well and allowed to adhere overnight. Cells were then exposed to appropriate concentrations of therapeutic agents (or vehicle control) with continuous exposure for 72 h. Growth inhibition was measured by CellTiter-Glo® 2.0 Cell Viability Assay from Promega according to manufactory's introduction. IC50 values were calculated using non-linear regression model (logarithmic inhibitor vs. normalized response-variable slope) in Graphpad Prism 9.

[2] = test system: myeloid cells (CD45^+CD11b^+) in ascites of PBM-R tumor-bearing mice; experiment: Myeloid cells in ascites of PBM-R tumor-bearing mice (transcriptome, flow cytometry); assay type: in vivo, mouse; conditions: 24 hours treatment
Protocol: Tumors were chopped and digested in collagenase buffer as described previously (Ding et al., 2018 Cell Rep 25, 2972-2980.e2975). Single cell suspensions of tumor and ascites were obtained by filtering through 70 um strainers and treated with 1× eBioscience RBC lysis buffer (Thermo Fisher) before staining. Single cells suspensions were incubated with LIVE/DEAD Fixable Aqua Dead Cell Stain (Life Technologies, Cat #L34965) for 30 min and then blocked with anti-CD16/32 (Biolegend, clone 93) for 20 min on ice. Samples were then incubated with appropriate antibodies for 30 min on ice. Foxp3 staining buffer set (eBioscience, Cat #00-5523-00) was applied for intracellular markers staining. For the intracellular cytokine analysis, cells were stimulated with Leukocyte Activation Cocktail (BD Biosciences, Cat #550583) at 37° C. for 4-6 hours prior to FACS staining. The following antibodies were used in this study: antibodies were purchased from BioLegend unless otherwise indicated: CD45 (clone 30-F11), CD3ε (clone 145-2C11), CD4 (clone RM4-5), CD8 (clone 53-6.7), CD44 (clone IM7), CD62L (MEL-14), CD25 (PC61), IFNγ (clone XMG1.2), TNFα (clone MP6-XT22), CD11b (clone M1/70), CD11c […], F4/80 (clone BM8), Ly-6C (clone HK1.4), Ly-6G (clone 1A8), MHC-II (clone M5/114.15.2), CD80 (clone 16-10A1), CD86 (clone GL-1), MHC-I (clone KH114), FoxP3 (clone FJK-16 s; eBioscience), Phospho-IRF-3 (Ser396) (clone D601M, Cell signaling technology) and Phospho-TBK1/NAK (Ser172) (clone D52C2, Cell signaling technology). The following human antibodies were used in this study: cell surface markers includes CD45 (clone H130), CD11b (clone M1/70), CD11c (clone Bu15), CD80 (clone 2D10), CD86 (clone IT2.2), CD14 (clone 63D3), CD15 […], HLA-DR (clone L243) and HLA-A,B,C (clone W6/32); intracellular markers include CD163 (clone GHI/61), CD68 (clone Y1/82A) and CD206 (clone 15-2). Flow cytometry was performed on an LSRII (BD Biosciences) or Fortessa HTS (BD Biosciences) at DFCI Flow Cytometry Core, and all the data were analyzed using FlowJo software.
Transcriptome analysis of myeloid cells: about 1 x10^6 PBM-R tumor cells were intraperitoneally injected to FVB/NJ mice. About 2-3 weeks after injection, mice were grouped and treated with control, olaparib, MSA-2 and […] for 24 hrs. After treatment, myeloid cells (CD45^+CD11b^+) were isolated from the ascites of each mouse (n=3 per group). Total RNAs was isolated and sequenced on the Ion Torrent platform (Thermo Fisher) that described above using the Ion AmpliSeq Transcriptome Mouse Gene Expression Panel. Gene ontology (GO) analysis of DEGs was performed using topGO package in R. GSEA analysis was performed as described above. Heat maps illustrating changes in gene expression were generated using the heatmap.3 package in R.

[3] = test system: WT BMDMs and STING^−/− BMDMs; experiment: WT and STING^−/− BMDMs cultured in CM from ID8-Brca1^−/− cells; assay type: cell-based, mouse; conditions: CM of control or olaparib-treated ID8-Brca1^−/− cells; FIG. 21I
Protocol: For ex vivo culture of mouse macrophages, bone marrow cells were isolated from FVB/NJ mice and cultured in DMEM containing 10% FBS, 55 μM 2-Mercaptoethanol and 20 ng/ml M-CSF. BMDMs (bone marrow derived macrophages) were harvested on day 7 and further cultured in 2.0 ml control medium (90% DMEM, 10% FBS, 55 μM 2-Mercaptoethanol and 5 ng/ml M-CSF) described above or the medium containing 50% tumor cell conditioned medium for 72 hrs before analysis. For the tumor cell conditioned medium, about 3×10^5 tumor cells were cultured in 6-well plate for 24 hrs and then treated with DMSO or olaparib. After 24 hrs incubation with DMSO or olaparib, the tumor cells were washed twice with PBS and cultured in DMEM containing 10% FBS for 48 hrs. The tumor cell conditioned medium was collected by centrifugation at 1,500 g for 5 min at 4° C. to remove all the debris and cells. For the cytokine blocking experiment, monoclonal antibodies that specific to each cytokine were added to the tumor cell conditioned medium before it was applied to culture macrophages.

[4] = test system: ID8-Brca1^−/− tumor cells in WT and STING^−/− mice; experiment: Macrophages and myeloid DCs in WT and STING^−/− mice injected with ID8-Brca1^−/− tumor cells; assay type: in vivo, mouse; conditions: 24 h treatment; FIG. 21K, FIG. 22D
Protocol: (§1) Tumors were chopped and digested in collagenase buffer as described previously (Ding et al., 2018 Cell Rep 25, 2972-2980.e2975). Single cell suspensions of tumor and ascites were obtained by filtering through 70 um strainers and treated with 1× eBioscience RBC lysis buffer (Thermo Fisher) before staining. Single cells suspensions were incubated with LIVE/DEAD Fixable Aqua Dead Cell Stain (Life Technologies, Cat #L34965) for 30 min and then blocked with anti-CD16/32 (Biolegend, clone 93) for 20 min on ice. Samples were then incubated with appropriate antibodies for 30 min on ice. Foxp3 staining buffer set (eBioscience, Cat #00-5523-00) was applied for intracellular markers staining. For the intracellular cytokine analysis, cells were stimulated with Leukocyte Activation Cocktail (BD Biosciences, Cat #550583) at 37° C. for 4-6 hours prior to FACS staining. […] Flow cytometry was performed on an LSRII (BD Biosciences) or Fortessa HTS (BD Biosciences) at DFCI Flow Cytometry Core, and all the data were analyzed using FlowJo software.

[5] = test system: DF101 PDX; experiment: DF101 ovarian PDX in NSG mice; assay type: in vivo, human
Description: For the PDX in vivo experiments, about 3×10^6 PDX tumor cells were mixed with 3×10^6 human bone marrow mononuclear cells in serum-free DMEM/F12 medium containing 50% Matrigel (CAT #70001, […] Technology) and intraperitoneally transplanted into NOD/SCID IL2Rgnull mice (NSG, The Jackson Laboratory). About three weeks after injection, PDX-bearing mice were equivalently divided into 4 groups according to the luminescent intensity and treated with vehicle control, olaparib, MSA-2 and olaparib in combination with MSA-2 using the same dosing and schedule that have been described above. Ascites was harvested for analysis after three weeks' treatment.
as §1

[6] = test system: PE tumors; experiment: PE (exon19del/T790M EGFR, Trp53 loss) tumor growth in FVB mice; assay type: in vivo, mouse; conditions: start at about 400 mm^3; osimertinib 10 mg/kg daily by gavage; MSA-2 20 mg/kg i.p. every three days; FIG. 30A

Row | Structure (SMILES) | IC50 values of 11 out of 12 PBM-R tumor lines ([1]; 11 out of 12 PBM-R lines sensitive in vitro, FIG. 15C) | IC50 ([1]; Mus musculus, PBM-R3 tumor cells, 72 h, FIG. 15C) [µM] | IC50 fold ([1]; PBM-R3 IC50 relative to 0.56 μM) [folds] | cGAS-STING pathway gene signature in myeloid cells ([2]; vs control mice) | expression of M1-like/anti-tumorigenic genes ([2]; FIG. 21D) | expression of genes associated with antigen processing and presentation ([2]; FIG. 21D) | expression of genes associated with pro-tumorigenic M2 polarization ([2]; FIG. 21D) | population of TAMs in ascites ([2]; FIG. 21F) | population of CD11b^+CD11c^+ myeloid DCs in ascites ([2]; FIG. 21G) | M2-like TAM polarization of WT BMDMs [3] | myeloid DC activation and TAM repolarization in WT mice [4] | tumor response compared to DF86 PDX tumors ([5]; FIG. 26) | TAM phenotype in ascites ([5]; FIG. 26C-E) | proportion of TAMs in ascites ([5]; FIG. 26C-E) | PE tumor growth [6]
1 | O=C(c1cc(Cc2n[nH]c(=O)c3ccccc23)ccc1F)N1CCN(C(=O)C2CC2)CC1 [olaparib] | comparable to PBM tumor cells | 4.19 | 7.48 |  |  |  |  |  |  |  |  |  |  |  | 
2 | COc1cc2cc(C(=O)CCC(=O)O)sc2cc1OC [MSA-2] |  |  |  | significantly higher enrichment scores | strongly up-regulated | strongly stimulated | inhibited | decreased | increased | successfully reversed | successfully activated myeloid DCs and repolarized M2-like TAM to M1-like status | less responsive | reprogramed M2-like TAMs to M1-like | greatly decreased | only modest therapeutic effects
